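Protocol summary: plate cells (96-well), add compound at 5 concentrations, incubate 48 h, interpolate endpoints linearly. GI50 = concentration required for 50% inhibition of growth.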 The source made the active and inactive calls. No stated cut-off is given here; in the data, active = GI50 up to about 1.1 µM and inactive = higher.
What was measured:
Assay in all cases: NCI anticancer screen, dose series, 48 h
MCF7 = test system: MCF7
HOP-92 = test system: HOP-92
EKVX = test system: EKVX
HCT-15 = test system: HCT-15
SK-MEL-5 = test system: SK-MEL-5
NCI-H23 = test system: NCI-H23
HT-29 = test system: HT-29
PC-3 = test system: PC-3
A498 = test system: A498
K562 = test system: K562
HOP-62 = test system: HOP-62
COLO 205 = test system: COLO 205
MOLT-4 = test system: MOLT-4
SF-268 = test system: SF-268
HCC 2998 = test system: HCC 2998
BT-549 = test system: BT-549
SR = test system: SR
RXF 393 = test system: RXF 393
CCRF-CEM = test system: CCRF-CEM

Structure (SMILES)	GI50 (MCF7)	GI50 (HOP-92)	GI50 (EKVX)	GI50 (HCT-15)	GI50 (SK-MEL-5)	GI50 (NCI-H23)	GI50 (HT-29)	GI50 (PC-3)	GI50 (A498)	GI50 (K562)	GI50 (HOP-62)	GI50 (COLO 205)	GI50 (MOLT-4)	GI50 (SF-268)	GI50 (HCC 2998)	GI50 (BT-549)	GI50 (SR)	GI50 (RXF 393)	GI50 (CCRF-CEM)
CCC1c2[nH]c3ccccc3c2C[C@H]2C(=O)NC(C)C(=O)N12 (stereo partly drawn)	> 100 µM (inactive)	> 100 µM (inactive)	> 100 µM (inactive)	> 100 µM	> 100 µM (inactive)	> 100 µM (inactive)	> 100 µM (inactive)	> 100 µM (inactive)	> 100 µM (inactive)	> 100 µM (inactive)	> 100 µM (inactive)	> 100 µM (inactive)	> 100 µM (inactive)	> 100 µM (inactive)	> 100 µM (inactive)	> 100 µM (inactive)	> 100 µM (inactive)	> 100 µM (inactive)	–
CC(O)c1cc2c(s1)C(=O)c1ccsc1C2=O (stereo not drawn)	0.0457 µM (active)	0.265 µM (active)	0.229 µM (active)	0.0409 µM	< 0.0122 µM (active)	0.0169 µM (active)	0.21 µM (active)	0.0632 µM (active)	1.53 µM (inactive)	0.122 µM (active)	0.142 µM (active)	1.77 µM (inactive)	0.213 µM (active)	0.162 µM (active)	0.223 µM (active)	0.0815 µM (active)	0.103 µM (active)	0.213 µM (active)	0.259 µM (active)
COc1cc2c(c(N)c1OC)C(=O)/C(=C/c1cc(C)c(O)c(C)c1)C2	< 0.01 µM (active)	> 100 µM (inactive)	< 0.01 µM (active)	< 0.01 µM	< 0.01 µM (active)	< 0.01 µM (active)	2.64 µM (inactive)	< 0.01 µM (active)	7.13 µM (inactive)	< 0.01 µM (active)	< 0.0176 µM (active)	5.6 µM (inactive)	< 0.01 µM (active)	< 0.01 µM (active)	1.95 µM (inactive)	9.68 µM (inactive)	< 0.01 µM (active)	0.0323 µM (active)	< 0.01 µM (active)
Cc1ccc(-c2c(C#N)c(S)n(NS(=O)(=O)c3ccc(C)cc3)c(=O)c2C#N)cc1	31.6 µM (inactive)	22.6 µM (inactive)	23.6 µM (inactive)	20.2 µM	21 µM (inactive)	18.5 µM (inactive)	–	22.8 µM (inactive)	33.7 µM (inactive)	35.8 µM (inactive)	–	30 µM (inactive)	24.2 µM (inactive)	–	5.19 µM (inactive)	16.6 µM (inactive)	29.6 µM (inactive)	23.5 µM (inactive)	8.02 µM (inactive)
N#Cc1c(N)c2c(c(-c3ccccc3)c1-c1ccccc1)C(=O)N(O)C2=O	46.1 µM (inactive)	64.1 µM (inactive)	36.6 µM (inactive)	70 µM	25.3 µM (inactive)	–	–	14.1 µM (inactive)	37.8 µM (inactive)	91.8 µM (inactive)	–	20.2 µM (inactive)	35.6 µM (inactive)	> 100 µM (inactive)	17.5 µM (inactive)	42.2 µM (inactive)	62.7 µM (inactive)	10.5 µM (inactive)	29.8 µM (inactive)
Fc1ccc(Oc2nc3ccccc3nc2-c2ccccc2)cc1	> 100 µM (inactive)	76.9 µM (inactive)	> 100 µM (inactive)	> 100 µM	> 100 µM (inactive)	42.5 µM (inactive)	> 100 µM (inactive)	> 100 µM (inactive)	> 100 µM (inactive)	> 100 µM (inactive)	88.9 µM (inactive)	> 100 µM (inactive)	> 100 µM (inactive)	> 100 µM (inactive)	> 100 µM (inactive)	95.3 µM (inactive)	44.6 µM (inactive)	37.2 µM (inactive)	> 100 µM (inactive)
O=P1(N(CCCl)CCCl)Oc2c(Cl)cc(Cl)c(Cl)c2Cc2c(Cl)c(Cl)cc(Cl)c2O1	64.7 µM (inactive)	24.5 µM (inactive)	92.3 µM (inactive)	48 µM	77.3 µM (inactive)	21.4 µM (inactive)	41.4 µM (inactive)	23.2 µM (inactive)	> 100 µM (inactive)	74 µM (inactive)	64 µM (inactive)	22.5 µM (inactive)	95.7 µM (inactive)	> 100 µM (inactive)	25.2 µM (inactive)	> 100 µM (inactive)	35.2 µM (inactive)	> 100 µM (inactive)	29.2 µM (inactive)
CC(=O)OCC1OC(n2c3c(cc(C#N)c2=S)CCCCC3)C(OC(C)=O)C(OC(C)=O)C1OC(C)=O (stereo not drawn)	> 100 µM (inactive)	> 100 µM (inactive)	–	> 100 µM	> 100 µM (inactive)	> 100 µM (inactive)	> 100 µM (inactive)	> 100 µM (inactive)	> 100 µM (inactive)	> 100 µM (inactive)	> 100 µM (inactive)	> 100 µM (inactive)	> 100 µM (inactive)	> 100 µM (inactive)	> 100 µM (inactive)	> 100 µM (inactive)	> 100 µM (inactive)	> 100 µM (inactive)	> 100 µM (inactive)
Cc1c(-c2ccccc2)c(C#N)c2nnn(-c3cccc(Cl)c3)c(=O)n12	43.9 µM (inactive)	44.9 µM (inactive)	33.1 µM (inactive)	41.1 µM	71.1 µM (inactive)	> 100 µM (inactive)	30.8 µM (inactive)	26.5 µM (inactive)	26.2 µM (inactive)	50.5 µM (inactive)	37.2 µM (inactive)	44.4 µM (inactive)	–	80.5 µM (inactive)	78.7 µM (inactive)	88.7 µM (inactive)	12.6 µM (inactive)	31.2 µM (inactive)	28.1 µM (inactive)
Fc1cccc(C2SCC3=Nc4ccccc4CN32)c1 (stereo not drawn)	35.4 µM (inactive)	84.1 µM (inactive)	25.4 µM (inactive)	58.9 µM	17.9 µM (inactive)	20.8 µM (inactive)	21.3 µM (inactive)	28.2 µM (inactive)	> 100 µM (inactive)	88.9 µM (inactive)	38.9 µM (inactive)	28.4 µM (inactive)	37.8 µM (inactive)	67.1 µM (inactive)	70.1 µM (inactive)	92.5 µM (inactive)	38.6 µM (inactive)	26.8 µM (inactive)	29.9 µM (inactive)
OC(c1cc(C23CC4CC(CC(C4)C2)C3)nc2c(Cl)cc(Cl)cc12)C1CCCCN1 (stereo not drawn)	1.6 µM (inactive)	2.05 µM (inactive)	1.73 µM (inactive)	1.83 µM	2.63 µM (inactive)	1.85 µM (inactive)	1.58 µM (inactive)	1.62 µM (inactive)	1.7 µM (inactive)	1.51 µM (inactive)	1.53 µM (inactive)	1.71 µM (inactive)	0.608 µM (active)	1.79 µM (inactive)	0.344 µM (active)	2.02 µM (inactive)	0.705 µM (active)	1.6 µM (inactive)	0.743 µM (active)
N#CCCN(CCC#N)c1ccc(/C=C2\SC(=S)NC2=O)cc1	> 100 µM (inactive)	75.9 µM (inactive)	> 100 µM (inactive)	> 100 µM	> 100 µM (inactive)	> 100 µM (inactive)	> 100 µM (inactive)	> 100 µM (inactive)	57.1 µM (inactive)	> 100 µM (inactive)	35.2 µM (inactive)	> 100 µM (inactive)	> 100 µM (inactive)	> 100 µM (inactive)	> 100 µM (inactive)	31.8 µM (inactive)	> 100 µM (inactive)	37.9 µM (inactive)	> 100 µM (inactive)
Cc1nc(Cl)c2sc(=S)n(-c3ccc(F)cc3)c2n1	2.84 µM (inactive)	14.4 µM (inactive)	13.2 µM (inactive)	3.21 µM	3.04 µM (inactive)	1.27 µM (inactive)	2.28 µM (inactive)	19.9 µM (inactive)	1.58 µM (inactive)	7.6 µM (inactive)	2.22 µM (inactive)	4.47 µM (inactive)	–	1.81 µM (inactive)	4.49 µM (inactive)	2.59 µM (inactive)	1.39 µM (inactive)	7.85 µM (inactive)	2.72 µM (inactive)
CC#CC#C/C(=C/C=CC(=O)OC)SC	> 100 µM (inactive)	> 100 µM (inactive)	> 100 µM (inactive)	> 100 µM	> 100 µM (inactive)	–	> 100 µM (inactive)	> 100 µM (inactive)	> 100 µM (inactive)	> 100 µM (inactive)	–	> 100 µM (inactive)	> 100 µM (inactive)	> 100 µM (inactive)	> 100 µM (inactive)	> 100 µM (inactive)	> 10 µM (inactive)	–	> 10 µM (inactive)
O=C(O)CCC(=O)Nc1ccc2c(c1)S(=O)(=O)N(CC(=O)O)C2=O	> 100 µM (inactive)	> 100 µM (inactive)	> 100 µM (inactive)	> 100 µM	> 100 µM (inactive)	> 100 µM (inactive)	> 100 µM (inactive)	> 100 µM (inactive)	> 100 µM (inactive)	> 100 µM (inactive)	> 100 µM (inactive)	> 100 µM (inactive)	> 100 µM (inactive)	–	> 100 µM (inactive)	> 100 µM (inactive)	> 100 µM (inactive)	–	> 100 µM (inactive)
CON(C)C(=O)C(C)N(Cc1ccccc1)Cc1ccccc1 (stereo not drawn)	58.3 µM (inactive)	> 100 µM (inactive)	65.8 µM (inactive)	34.8 µM	41.3 µM (inactive)	46.3 µM (inactive)	79.1 µM (inactive)	19.1 µM (inactive)	> 100 µM (inactive)	40.5 µM (inactive)	23.3 µM (inactive)	–	26.5 µM (inactive)	> 100 µM (inactive)	> 100 µM (inactive)	45.6 µM (inactive)	69 µM (inactive)	> 100 µM (inactive)	50.8 µM (inactive)

— ChEMBL document CHEMBL1201862, “PubChem BioAssay data set” (2004)
